≈ marks a conversion by molar mass, not a printed value.
Tests used:
Cytochrome P450 3A4 = Cytochrome P450 3A4 (Homo sapiens, UniProt P08684); assay: Inhibition of CYP3A4 in human liver microsomes using testosterone/midazolam as substrate after 30 mins by LC/MS/MS analysis; type: ADME
[1] = Half life in Sprague-Dawley rat at 1 mg/kg, iv; type: ADME, organism-based; conditions: in vivo
[2] = Volume of distribution at steady state in Sprague-Dawley rat at 1 mg/kg, iv; type: ADME, organism-based; conditions: in vivo, read-out: Vdss
[3] = Tmax in Sprague-Dawley rat at 20 mg/kg, ip; type: ADME, organism-based; conditions: in vivo
[4] = Kinetic solubility of compound at pH 7.2; type: physicochemical; conditions: buffer, read-out: Kinetic_solubility
[5] = AUC (0 to infinity) in Sprague-Dawley rat at 1 mg/kg, iv; type: ADME, organism-based; parameters: dose 1 mg/kg, time infinity, route intravenous; conditions: in vivo
[6] = Half life in Sprague-Dawley rat at 20 mg/kg, ip; type: ADME, organism-based; conditions: in vivo
[7] = Cmax in Sprague-Dawley rat at 20 mg/kg, ip; type: ADME, organism-based; parameters: dose 20 mg/kg, route intraperitoneal; conditions: in vivo
[8] = Efflux ratio of apparent permeability from apical to basolateral side to basolateral to apical side in MDCK1 cells expressing human MDR1 at 10 uM; type: ADME, cell-based, Canis lupus familiaris; conditions: dog, mdck1, 10 µM
[9] = biological target: T1, Sodium channel protein type 9 subunit alpha (Homo sapiens, UniProt Q15858); assay: Inhibition of full length human Nav1.7 channel expressed in HEK cells co-expressing human sodium channel subunit beta1 at holding potential -60 mV by automated voltage clamp analysis; type: cell-based, HEK293
T1 sequence (Q15858 whole entry): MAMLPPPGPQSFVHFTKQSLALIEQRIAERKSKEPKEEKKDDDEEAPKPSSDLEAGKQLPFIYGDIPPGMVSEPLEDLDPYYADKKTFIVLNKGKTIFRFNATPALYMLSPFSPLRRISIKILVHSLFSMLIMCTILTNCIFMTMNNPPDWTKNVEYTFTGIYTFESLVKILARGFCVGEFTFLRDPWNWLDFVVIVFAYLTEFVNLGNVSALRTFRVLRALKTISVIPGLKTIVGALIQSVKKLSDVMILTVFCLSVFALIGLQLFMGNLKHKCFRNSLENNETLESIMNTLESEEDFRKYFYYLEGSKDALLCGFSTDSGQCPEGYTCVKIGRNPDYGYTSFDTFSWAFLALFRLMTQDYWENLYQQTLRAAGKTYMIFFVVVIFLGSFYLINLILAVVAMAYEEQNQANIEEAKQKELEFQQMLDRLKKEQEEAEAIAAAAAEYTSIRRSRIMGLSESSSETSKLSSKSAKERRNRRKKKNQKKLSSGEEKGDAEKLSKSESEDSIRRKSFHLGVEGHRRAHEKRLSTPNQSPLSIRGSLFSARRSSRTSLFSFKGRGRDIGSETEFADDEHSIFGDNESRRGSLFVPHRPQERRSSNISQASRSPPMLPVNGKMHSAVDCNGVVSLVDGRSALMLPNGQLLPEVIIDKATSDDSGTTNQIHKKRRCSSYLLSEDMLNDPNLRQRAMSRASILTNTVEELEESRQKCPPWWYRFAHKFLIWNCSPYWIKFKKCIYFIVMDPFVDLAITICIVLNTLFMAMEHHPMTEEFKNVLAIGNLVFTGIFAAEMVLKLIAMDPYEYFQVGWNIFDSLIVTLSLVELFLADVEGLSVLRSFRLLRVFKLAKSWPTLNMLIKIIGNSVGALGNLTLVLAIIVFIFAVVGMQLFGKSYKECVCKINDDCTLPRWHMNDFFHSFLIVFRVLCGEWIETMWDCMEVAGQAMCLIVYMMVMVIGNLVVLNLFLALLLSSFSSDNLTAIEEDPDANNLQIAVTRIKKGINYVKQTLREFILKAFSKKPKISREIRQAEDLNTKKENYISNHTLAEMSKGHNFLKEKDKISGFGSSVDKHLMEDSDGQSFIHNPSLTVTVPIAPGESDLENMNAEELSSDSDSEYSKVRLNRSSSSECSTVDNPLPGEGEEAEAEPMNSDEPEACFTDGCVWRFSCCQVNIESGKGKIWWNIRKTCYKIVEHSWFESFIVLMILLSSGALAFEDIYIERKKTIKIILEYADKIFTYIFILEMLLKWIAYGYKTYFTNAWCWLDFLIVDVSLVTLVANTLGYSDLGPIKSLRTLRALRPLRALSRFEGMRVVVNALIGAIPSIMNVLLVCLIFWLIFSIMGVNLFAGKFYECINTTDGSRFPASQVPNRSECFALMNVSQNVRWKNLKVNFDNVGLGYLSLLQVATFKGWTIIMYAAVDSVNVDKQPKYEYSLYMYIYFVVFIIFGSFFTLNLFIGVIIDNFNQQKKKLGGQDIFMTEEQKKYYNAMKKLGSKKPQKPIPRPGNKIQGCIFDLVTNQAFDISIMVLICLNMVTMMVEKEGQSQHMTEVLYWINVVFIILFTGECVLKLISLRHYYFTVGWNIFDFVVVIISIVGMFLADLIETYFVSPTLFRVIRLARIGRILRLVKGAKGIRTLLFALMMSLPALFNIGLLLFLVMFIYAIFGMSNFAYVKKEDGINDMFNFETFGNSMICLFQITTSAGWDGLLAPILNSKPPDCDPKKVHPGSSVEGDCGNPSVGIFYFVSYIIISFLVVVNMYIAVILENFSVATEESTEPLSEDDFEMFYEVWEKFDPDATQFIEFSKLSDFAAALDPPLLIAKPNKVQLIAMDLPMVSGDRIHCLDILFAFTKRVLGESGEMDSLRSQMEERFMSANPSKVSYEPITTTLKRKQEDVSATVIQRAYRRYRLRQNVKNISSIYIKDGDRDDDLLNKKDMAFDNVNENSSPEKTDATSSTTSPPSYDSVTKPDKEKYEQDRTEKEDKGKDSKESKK

[10] = Plasma clearance in Sprague-Dawley rat at 1 mg/kg, iv; type: ADME, organism-based
Cytochrome P450 2C9 = Cytochrome P450 2C9 (Homo sapiens, UniProt P11712); assay: Inhibition of CYP2C9 in human liver microsomes using warfarin as substrate after 30 mins by LC/MS/MS analysis; type: ADME
[11] = Ratio of drug uptake in brain to plasma in Sprague-Dawley rat at 20 mg/kg, ip by UHPLC analysis; type: ADME, organism-based; conditions: read-out: BPR
[12] = Cmax in Sprague-Dawley rat at 1 mg/kg, iv; type: ADME, organism-based; parameters: dose 1 mg/kg, route intravenous; conditions: in vivo
Cytochrome P450 1A2 = biological target: T2, Cytochrome P450 1A2 (Homo sapiens, UniProt P05177); assay: Inhibition of CYP1A2 in human liver microsomes using phenacetin as substrate after 30 mins by LC/MS/MS analysis; type: ADME
T2 sequence (P05177 whole entry): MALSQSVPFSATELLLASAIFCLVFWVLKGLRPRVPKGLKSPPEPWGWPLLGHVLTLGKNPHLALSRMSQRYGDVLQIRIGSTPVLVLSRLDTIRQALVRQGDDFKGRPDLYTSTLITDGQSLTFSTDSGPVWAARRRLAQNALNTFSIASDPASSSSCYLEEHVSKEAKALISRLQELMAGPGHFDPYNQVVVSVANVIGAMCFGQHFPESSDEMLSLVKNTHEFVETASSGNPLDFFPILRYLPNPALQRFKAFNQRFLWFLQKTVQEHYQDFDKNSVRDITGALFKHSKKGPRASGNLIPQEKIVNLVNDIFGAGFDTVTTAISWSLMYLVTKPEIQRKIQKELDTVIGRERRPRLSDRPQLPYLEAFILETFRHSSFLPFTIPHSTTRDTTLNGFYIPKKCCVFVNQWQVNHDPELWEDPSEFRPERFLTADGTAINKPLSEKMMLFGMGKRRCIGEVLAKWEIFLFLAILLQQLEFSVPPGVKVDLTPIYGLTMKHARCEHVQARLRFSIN

[13] = biological target: Sodium channel protein type 8 subunit alpha (Homo sapiens, UniProt Q9UQD0); assay: Inhibition of full length human Nav1.6 channel expressed in HEK cells co-expressing human sodium channel subunit beta1 at holding potential -35 mV by automated voltage clamp analysis; type: cell-based, HEK293
[14] = biological target: Sodium channel protein type 2 subunit alpha (Homo sapiens, UniProt Q99250); assay: Inhibition of full length human Nav1.2 channel expressed in HEK cells co-expressing human sodium channel subunit beta1 at holding potential -35 mV by automated voltage clamp analysis; type: cell-based, HEK293
[15] = biological target: T1, Sodium channel protein type 9 subunit alpha; assay: Inhibition of full length human Nav1.7 channel expressed in HEK cells co-expressing human sodium channel subunit beta3 at -150 mV by manual voltage clamp analysis; type: cell-based, HEK293
Cytochrome P450 2D6 = Cytochrome P450 2D6 (Homo sapiens, UniProt P10635); assay: Inhibition of CYP2D6 in human liver microsomes using dextromethorphan as substrate after 30 mins by LC/MS/MS analysis; type: ADME
[16] = biological target: Sodium channel protein type 5 subunit alpha (Homo sapiens, UniProt Q14524); assay: Inhibition of full length human Nav1.5 channel expressed in HEK cells co-expressing human sodium channel subunit beta1 at holding potential -60 mV by automated voltage clamp analysis; type: cell-based, HEK293
Chain of Sodium channel protein type 5 subunit alpha (Q14524 whole entry): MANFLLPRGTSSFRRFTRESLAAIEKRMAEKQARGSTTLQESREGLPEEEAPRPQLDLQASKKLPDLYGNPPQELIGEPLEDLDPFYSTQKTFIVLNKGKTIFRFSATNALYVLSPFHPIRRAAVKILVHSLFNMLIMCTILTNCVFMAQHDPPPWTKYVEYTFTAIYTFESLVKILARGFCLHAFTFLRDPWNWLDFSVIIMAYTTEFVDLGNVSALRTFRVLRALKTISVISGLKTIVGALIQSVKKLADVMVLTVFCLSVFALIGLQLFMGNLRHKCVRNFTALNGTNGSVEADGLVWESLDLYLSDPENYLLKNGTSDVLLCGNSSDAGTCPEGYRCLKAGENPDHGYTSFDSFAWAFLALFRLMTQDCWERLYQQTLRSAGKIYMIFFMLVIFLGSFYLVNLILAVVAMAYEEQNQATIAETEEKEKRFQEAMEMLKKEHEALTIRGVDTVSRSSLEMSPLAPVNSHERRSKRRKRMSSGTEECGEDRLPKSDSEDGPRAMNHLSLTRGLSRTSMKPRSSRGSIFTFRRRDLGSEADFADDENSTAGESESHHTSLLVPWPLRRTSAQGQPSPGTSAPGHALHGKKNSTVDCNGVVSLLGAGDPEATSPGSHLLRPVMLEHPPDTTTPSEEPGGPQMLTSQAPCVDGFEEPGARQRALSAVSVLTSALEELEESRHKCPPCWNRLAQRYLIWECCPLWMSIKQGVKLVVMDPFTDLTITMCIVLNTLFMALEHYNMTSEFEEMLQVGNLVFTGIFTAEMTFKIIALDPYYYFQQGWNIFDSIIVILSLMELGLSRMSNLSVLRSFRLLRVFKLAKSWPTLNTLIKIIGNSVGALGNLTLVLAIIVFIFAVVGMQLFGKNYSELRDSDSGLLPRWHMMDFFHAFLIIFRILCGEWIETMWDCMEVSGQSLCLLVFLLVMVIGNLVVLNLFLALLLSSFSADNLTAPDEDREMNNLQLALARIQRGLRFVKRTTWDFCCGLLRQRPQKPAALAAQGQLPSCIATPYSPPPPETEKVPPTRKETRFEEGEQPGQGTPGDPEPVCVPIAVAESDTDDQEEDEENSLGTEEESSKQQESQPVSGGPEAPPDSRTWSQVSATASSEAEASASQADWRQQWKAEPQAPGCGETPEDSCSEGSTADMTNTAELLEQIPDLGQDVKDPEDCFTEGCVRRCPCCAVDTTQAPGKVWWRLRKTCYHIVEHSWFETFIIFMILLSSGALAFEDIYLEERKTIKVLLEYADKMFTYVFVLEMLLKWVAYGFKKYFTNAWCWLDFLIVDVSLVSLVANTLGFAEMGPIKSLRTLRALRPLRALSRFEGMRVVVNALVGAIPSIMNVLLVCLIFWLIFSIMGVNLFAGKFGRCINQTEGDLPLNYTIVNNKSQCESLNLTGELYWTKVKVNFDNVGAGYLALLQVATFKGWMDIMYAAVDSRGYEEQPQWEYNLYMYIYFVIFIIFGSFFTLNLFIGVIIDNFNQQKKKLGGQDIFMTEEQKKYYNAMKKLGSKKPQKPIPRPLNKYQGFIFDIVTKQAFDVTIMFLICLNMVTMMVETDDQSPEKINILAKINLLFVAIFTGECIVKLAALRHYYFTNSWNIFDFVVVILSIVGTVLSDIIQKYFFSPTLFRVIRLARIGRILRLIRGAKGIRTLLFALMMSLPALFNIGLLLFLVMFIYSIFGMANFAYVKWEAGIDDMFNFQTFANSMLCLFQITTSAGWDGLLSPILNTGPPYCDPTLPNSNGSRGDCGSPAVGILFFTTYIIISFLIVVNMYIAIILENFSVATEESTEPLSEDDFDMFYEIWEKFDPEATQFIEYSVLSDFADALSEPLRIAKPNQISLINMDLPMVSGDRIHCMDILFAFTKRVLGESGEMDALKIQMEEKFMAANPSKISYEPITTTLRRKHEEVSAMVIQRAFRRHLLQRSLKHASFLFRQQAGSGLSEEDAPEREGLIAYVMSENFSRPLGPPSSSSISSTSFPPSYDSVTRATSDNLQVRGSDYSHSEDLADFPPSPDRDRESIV

[17] = biological target: Sodium channel protein type 9 subunit alpha (Rattus norvegicus, UniProt O08562); assay: Inhibition of rat Nav1.7 channel by automated voltage clamp analysis
[18] = Plasma protein binding in rat at 10 uM incubated for 20 hrs by HPLC-MS/MS analysis; type: ADME, cell-free; conditions: read-out: PPB (converted)
[19] = AUC (0 to infinity) in Sprague-Dawley rat at 20 mg/kg, ip; type: ADME, organism-based; parameters: dose 20 mg/kg, route intraperitoneal, time infinity; conditions: in vivo
[20] = biological target: Sodium channel protein type 9 subunit alpha (Mus musculus, UniProt Q62205); assay: Inhibition of Nav1.7 channel in mouse CAD cells by whole-cell patch clamp assay; type: cell-based
[21] = Apparent permeability from apical to basolateral side in MDCK1 cells at 10 uM incubated for 2 hrs; type: ADME, cell-based, Canis lupus familiaris; conditions: dog, MDCK
[22] = biological target: Sodium channel protein type 1 subunit alpha (Homo sapiens, UniProt P35498); assay: Inhibition of full length human Nav1.1 channel expressed in HEK cells co-expressing human sodium channel subunit beta1 at holding potential -40 mV by automated voltage clamp analysis; type: cell-based, HEK293
[23] = Dissociation constant, pKa of the compound at 100 uM by UV-spectrophotometric titration method; type: physicochemical
hERG (KCNH2) = hERG (KCNH2) (Homo sapiens, UniProt Q12809); assay: Displacement of [3H] astemizole from human ERG channel at 5 uM; conditions: probe [3H] astemizole
Chain of hERG (KCNH2) (Q12809 whole entry): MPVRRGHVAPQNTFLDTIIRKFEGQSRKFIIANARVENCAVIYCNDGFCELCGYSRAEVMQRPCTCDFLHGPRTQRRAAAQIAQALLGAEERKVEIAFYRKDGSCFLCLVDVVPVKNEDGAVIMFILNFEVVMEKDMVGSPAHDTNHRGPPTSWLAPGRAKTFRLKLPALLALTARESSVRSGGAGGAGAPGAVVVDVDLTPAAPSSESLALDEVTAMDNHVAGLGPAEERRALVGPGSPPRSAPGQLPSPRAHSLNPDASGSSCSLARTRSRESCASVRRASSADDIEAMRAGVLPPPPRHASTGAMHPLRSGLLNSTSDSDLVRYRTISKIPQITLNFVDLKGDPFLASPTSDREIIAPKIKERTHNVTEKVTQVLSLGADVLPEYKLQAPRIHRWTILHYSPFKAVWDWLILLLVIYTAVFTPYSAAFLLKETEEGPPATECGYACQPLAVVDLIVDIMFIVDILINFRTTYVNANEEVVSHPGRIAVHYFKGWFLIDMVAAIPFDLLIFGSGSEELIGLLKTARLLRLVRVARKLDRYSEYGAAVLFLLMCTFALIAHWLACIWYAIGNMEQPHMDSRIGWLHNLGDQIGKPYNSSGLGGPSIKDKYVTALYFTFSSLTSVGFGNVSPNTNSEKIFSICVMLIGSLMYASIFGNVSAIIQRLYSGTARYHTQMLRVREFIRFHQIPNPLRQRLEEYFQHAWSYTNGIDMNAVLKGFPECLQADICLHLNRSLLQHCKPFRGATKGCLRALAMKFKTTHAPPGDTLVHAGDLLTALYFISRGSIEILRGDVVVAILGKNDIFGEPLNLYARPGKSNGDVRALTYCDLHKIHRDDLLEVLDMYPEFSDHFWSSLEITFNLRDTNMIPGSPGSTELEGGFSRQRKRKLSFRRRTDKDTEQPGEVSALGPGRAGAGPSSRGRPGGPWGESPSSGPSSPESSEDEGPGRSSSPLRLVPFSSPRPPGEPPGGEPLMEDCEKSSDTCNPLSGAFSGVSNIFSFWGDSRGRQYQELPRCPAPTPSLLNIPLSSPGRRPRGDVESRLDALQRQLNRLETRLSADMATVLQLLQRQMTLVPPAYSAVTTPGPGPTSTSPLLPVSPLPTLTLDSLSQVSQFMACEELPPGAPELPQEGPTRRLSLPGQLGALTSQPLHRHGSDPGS

## Nc1noc2ccc(-c3cc(Cl)ccc3Oc3cc(F)c(S(=O)(=O)Nc4ncns4)cc3F)cc12
Cytochrome P450 3A4
  IC50: 77 nM
[1]
  half-life: 7.8 min
[2]
  Vd: 1.4 L/kg
[3]
  Tmax: 3.6 min
[4]
  solubility kinetic: 121 µM (≈ 64.8 µg/mL)
[5]
  AUC(0-inf): 0.18 µM·h
[6]
  half-life: 132 min
[7]
  Cmax: 5.3 µM
[8]
  Ratio: 47
[9]
  IC50: 0.4 nM
[10]
  clearance: 177 mL/min/kg
Cytochrome P450 2C9
  IC50: 170 nM
[11]
  Kp: 0.019
[12]
  Cmax: 2.9 µM
Cytochrome P450 1A2
  IC50: > 9000 nM
[13]
  IC50: 11 nM
[14]
  IC50: 4.2 nM
[15]
  IC50: 0.4 nM
Cytochrome P450 2D6
  IC50: > 9000 nM
[16]
  IC50: 1380 nM
[17]
  IC50: 26 nM
[18]
  fraction unbound at 20 h, 10 µM: 0.011
[19]
  AUC(0-inf): 13.5 µM·h
[20]
  IC50: 0.2 nM
[21]
  Papp A→B at 2 h, 10 µM: 2.1 ×10⁻⁶ cm/s
[22]
  IC50: 3080 nM
[23]
  pKa at 100 µM: 3.2
hERG (KCNH2)
  inhibition at 5 µM: < 11%
